Values after ≈ are worked out from the molar mass of the structure shown.
Test system: extended bacterial panel
Test: MIC against an extended bacterial panel (Table 15)
Format: cell-based

With `CN(C)c1cc(NC(=O)CNC(C)(C)C)c(O)c2c1C[C@H]1C[C@H]3[C@H](N(C)C)C(O)=C(C(N)=O)C(=O)[C@@]3(O)C(O)=C1C2=O` [Tigecycline, tigecycline, reference compound] the MIC (Enterococcus faecalis, ATCC29212, Enterococcus faecalis ATCC 29212) was 0.125 µg/mL (≈ 0.213 µM), the MIC (Enterococcus faecalis, ATCC51299, Enterococcus faecalis ATCC 51299, VanB) was 0.0625 µg/mL (≈ 0.107 µM) and the MIC (Enterococcus faecalis, ATCC51575, Enterococcus faecalis ATCC 51575, VanB) was 0.125 µg/mL (≈ 0.213 µM). For the same compound, the MIC (Enterococcus faecalis, ATCC700802, Enterococcus faecalis ATCC 700802, VanB) was 0.125 µg/mL (≈ 0.213 µM), the MIC (Enterococcus faecalis, CCUG47775, Enterococcus faecalis CCUG 47775, Van A) was 0.125 µg/mL (≈ 0.213 µM) and the MIC (Enterococcus faecium, CCUG59167, Enterococcus faecium TUH44-29, CCUG 59167, Van A) was 0.0625 µg/mL (≈ 0.107 µM). It also gave an MIC (Enterococcus gallinarum, ATCC 49608 / GALLINARUM, Enterococcus gallinarum ATCC 49608, VanC) of 0.125 µg/mL (≈ 0.213 µM).
Work on `CN[C@H](CC(C)C)C(=O)N[C@H]1C(=O)N[C@@H](CC(N)=O)C(=O)N[C@H]2C(=O)N[C@H]3C(=O)N[C@H](C(=O)N[C@H](C(=O)O)c4cc(O)cc(O)c4-c4cc3ccc4O)[C@H](O)c3ccc(c(Cl)c3)Oc3cc2cc(c3O[C@@H]2O[C@H](CO)[C@@H](O)[C@H](O)[C@H]2O[C@H]2C[C@](C)(N)[C@H](O)[C@H](C)O2)Oc2ccc(cc2Cl)[C@H]1O` [Vancomycin, vancomycin, reference compound] yielded an MIC (Staphylococcus aureus, ATCC10390, Staphylococcus aureus ATCC 10390) of 1 µg/mL (≈ 0.69 µM), an MIC (Staphylococcus aureus, ATCC 13709 / MRSA, Staphylococcus aureus ATCC 13709, MRSA) of 0.5 µg/mL (≈ 0.345 µM) and an MIC (Staphylococcus aureus, ATCC19636, Staphylococcus aureus Smith, ATCC 19636) of 0.5 µg/mL (≈ 0.345 µM). For the same compound, the MIC (Staphylococcus aureus, ATCC27660, Staphylococcus aureus ATCC 27660) was 0.5 µg/mL (≈ 0.345 µM), the MIC (Staphylococcus aureus, ATCC29213, Staphylococcus aureus ATCC 29213) was 0.5 µg/mL (≈ 0.345 µM) and the MIC (Staphylococcus aureus, ATCC29213, Staphylococcus aureus ATCC 29213 with 50% human serum) was 1 µg/mL (≈ 0.69 µM). The MIC (Staphylococcus aureus, ATCC 33591 / MRSA, Staphylococcus aureus ATCC 33591, MRSA) was 0.5 µg/mL (≈ 0.345 µM), the MIC (Staphylococcus aureus, ATCC 33592 / MRSA, Staphylococcus aureus ATCC 33592, MRSA) was 0.5 µg/mL (≈ 0.345 µM) and the MIC (Staphylococcus aureus, ATCC33594, Staphylococcus aureus ATCC 33594) was 0.5 µg/mL (≈ 0.345 µM). For the same compound, the MIC (Staphylococcus aureus, ATCC49230, Staphylococcus aureus ATCC 49230) was 0.5 µg/mL (≈ 0.345 µM), the MIC (Staphylococcus aureus, BAA-1556 / MRSA / USA300, Staphylococcus aureus FPR3757, BAA-1556, USA300 MRSA) was 0.5 µg/mL (≈ 0.345 µM) and the MIC (Staphylococcus aureus, BAA-1707 / MRSA / USA400, Staphylococcus aureus MW2, BAA-1707, USA400 MRSA) was 0.5 µg/mL (≈ 0.345 µM). For the same compound, the MIC (Staphylococcus aureus, BAA-1717 / MRSA / USA300, Staphylococcus aureus TCH1516, BAA-1717, USA300 MRSA) was 0.5 µg/mL (≈ 0.345 µM), the MIC (Staphylococcus aureus, MRSA / NRS 71, Staphylococcus aureus NRS71, MRSA) was 0.25 µg/mL (≈ 0.173 µM) and the MIC (Staphylococcus aureus, MRSA / NRS 119, Staphylococcus aureus NRS119, MRSA LZD-NS) was 1 µg/mL (≈ 0.69 µM). The MIC (Staphylococcus aureus, MRSA / NRS 123 / USA400, Staphylococcus aureus NRS123, USA400 MRSA) was 0.5 µg/mL (≈ 0.345 µM), the MIC (Staphylococcus aureus, MRSA / NRS 127, Staphylococcus aureus NRS127, MRSA LZD-NS) was 1 µg/mL (≈ 0.69 µM) and the MIC (Staphylococcus aureus, MRSA / NRS 271, Staphylococcus aureus E-MRSA 15, NRS271, MRSA LZD-NS) was 0.5 µg/mL (≈ 0.345 µM). For the same compound, the MIC (Staphylococcus aureus, MRSA / NRS 382 / USA100, Staphylococcus aureus NRS382, USA100 MRSA) was 1 µg/mL (≈ 0.69 µM), the MIC (Staphylococcus aureus, MRSA / NRS 383 / USA200, Staphylococcus aureus NRS383, USA200 MRSA TIG-NS) was 0.5 µg/mL (≈ 0.345 µM) and the MIC (Staphylococcus aureus, MRSA / NRS 384 / USA300, Staphylococcus aureus NRS384, USA300 MRSA) was 0.5 µg/mL (≈ 0.345 µM). For the same compound, the MIC (Staphylococcus aureus, MRSA / NRS 385 / USA500, Staphylococcus aureus NRS385, USA500 MRSA) was 0.5 µg/mL (≈ 0.345 µM), the MIC (Staphylococcus aureus, MRSA / NRS 386 / USA700, Staphylococcus aureus NRS386, USA700 MRSA) was 0.5 µg/mL (≈ 0.345 µM) and the MIC (Staphylococcus aureus, MRSA / NRS 387 / USA800, Staphylococcus aureus NRS387, USA800 MRSA) was 1 µg/mL (≈ 0.69 µM). It also gave an MIC (Staphylococcus aureus, MRSA / NRS 483, Staphylococcus aureus NRS483, USA1000 MRSA) of 0.5 µg/mL (≈ 0.345 µM), an MIC (Staphylococcus aureus, MRSA / NRS 484, Staphylococcus aureus NRS484, USA1100 MRSA) of 1 µg/mL (≈ 0.69 µM) and an MIC (Staphylococcus aureus, MRSA, Staphylococcus aureus ECL 2963621, MRSA DAP-NS) of 1 µg/mL (≈ 0.69 µM). It also gave an MIC (Staphylococcus aureus, MRSA, Staphylococcus aureus ECL 2963667, MRSA DAP-NS) of 1 µg/mL (≈ 0.69 µM), an MIC (Staphylococcus aureus, MRSA, Staphylococcus aureus ECL 2963743, MRSA DAP-NS) of 1 µg/mL (≈ 0.69 µM) and an MIC (Staphylococcus aureus, MRSA, Staphylococcus aureus R136) of 0.5 µg/mL (≈ 0.345 µM). For the same compound, the MIC (Staphylococcus aureus, NRS72, Staphylococcus aureus Sanger-476, NRS72) was 0.5 µg/mL (≈ 0.345 µM), the MIC (Staphylococcus aureus, NRS157, Staphylococcus aureus NRS157) was 0.5 µg/mL (≈ 0.345 µM) and the MIC (Staphylococcus aureus, Staphylococcus aureus 6538P) was 0.125 µg/mL (≈ 0.0863 µM). The MIC (Staphylococcus epidermidis, ATCC12228, Staphylococcus epidermidis ATCC 12228) was 0.5 µg/mL (≈ 0.345 µM), the MIC (Staphylococcus epidermidis, ATCC51625, Staphylococcus epidermidis CCF 15990, ATCC 51625) was 1 µg/mL (≈ 0.69 µM) and the MIC (Staphylococcus epidermidis, NRS101, Staphylococcus epidermidis NRS101) was 1 µg/mL (≈ 0.69 µM). The MIC (Staphylococcus haemolyticus, ATCC29970, Staphylococcus haemolyticus ATCC 29970) was 1 µg/mL (≈ 0.69 µM), the MIC (Staphylococcus intermedius, ATCC29663, Staphylococcus intermedius ATCC 29663) was 1 µg/mL (≈ 0.69 µM) and the MIC (Staphylococcus saprophyticus, ATCC15305, Staphylococcus saprophyticus ATCC 15305) was 0.5 µg/mL (≈ 0.345 µM). It also gave an MIC (Strepotococcus pyogenes ATCC 14289) of 0.25 µg/mL (≈ 0.173 µM), an MIC (Strepotococcus pyogenes ATCC 19615) of 0.25 µg/mL (≈ 0.173 µM) and an MIC (Streptococcus agalactiae, ATCC12386, Streptococcus agalactiae ATCC 12386) of 0.5 µg/mL (≈ 0.345 µM). It also gave an MIC (Streptococcus mutans, ATCC25175, Streptococcus mutans ATCC 25175) of 2 µg/mL (≈ 1.38 µM), an MIC (Streptococcus oralis, ATCC9811, Streptococcus oralis ATCC 9811) of 0.5 µg/mL (≈ 0.345 µM) and an MIC (Streptococcus pneumoniae, ATCC6301, Streptococcus pneumoniae ATCC 6301) of 0.25 µg/mL (≈ 0.173 µM). It also gave an MIC (Streptococcus pneumoniae, ATCC49619, Streptococcus pneumoniae ATCC 49619) of 0.25 µg/mL (≈ 0.173 µM), an MIC (Streptococcus pneumoniae, ATCC51916, Streptococcus pneumoniae Tenessee 23F, ATCC 51916, MDR) of 0.25 µg/mL (≈ 0.173 µM) and an MIC (Streptococcus pneumoniae, ATCC700669, Streptococcus pneumoniae SP264, ATCC 700669, ST 23F) of 0.25 µg/mL (≈ 0.173 µM). It also gave an MIC (Streptococcus pneumoniae, ATCC700673, Streptococcus pneumoniae Hungary 19A, ATCC 700673, MDR) of 0.25 µg/mL (≈ 0.173 µM), an MIC (Streptococcus pneumoniae, ATCC700675, Streptococcus pneumoniae S. Africa 6B-8, ATCC 700675) of 0.25 µg/mL (≈ 0.173 µM) and an MIC (Streptococcus pneumoniae, ATCC700676, Streptococcus pneumonia England ST14-9 ATCC 700676, ERY-R) of 0.25 µg/mL (≈ 0.173 µM). The MIC (Streptococcus pneumoniae, ATCC 700677 / PRSP, Streptococcus pneumoniae CSR 14-10, ATCC 700677, PRSP) was 0.25 µg/mL (≈ 0.173 µM), the MIC (Streptococcus pneumoniae, PRSP, Streptococcus pneumoniae TM532) was 0.25 µg/mL (≈ 0.173 µM) and the MIC (Streptococcus salivarius, ATCC13419, Streptococcus salivarius ATCC 13419) was 0.5 µg/mL (≈ 0.345 µM). For the same compound, the MIC (Streptococcus sanguinis, ATCC10556, Streptococcus sanguinis ATCC 10556) was 0.5 µg/mL (≈ 0.345 µM).
